The subject of data set [1] is β-catenin. As to the kind of experiment: β-catenin confocal microscopy in U2AF1 S34F mutant TF-1 cells. It counts as cell-based. As to conditions: treated for 24 hours prior to staining. The procedure:
Reagents and cells. U937 cells were grown in RPMI1640 supplemented with 10% FBS. TF-1 U2AF1 mutant and mock WT cells were cultured in RPMI1640 supplemented with 10% FBS and 2 ng/mL recombinant human GM-CSF. Cells were maintained at 37° C. under 5% CO2. Normal, heparinized BM aspirates were purchased from Lonza Walkersville or AllCells, LLC. […] J Clin Invest. 2013 123(11):4595-611). The IRAK4 inhibitor was acquired through material transfer agreement from Nimbus Discovery. NAC and DPI were purchased from Sigma-Aldrich. Active caspase-1 and caspase-3/7 were detected using FAM-FLICA® Caspase-1 and Caspase-3/7 activity kits, (ImmunoChemistry Technologies). NLRP1 antibodies were purchased from Santa Cruz Biotechnology, NLRP3 antibodies from Abcam, and β-catenin antibodies from BD Biosciences. Immunofluorescence confocal microscopy. MDS and normal donor BM-MNC and mouse BM cells were stained with 30× FAM-FLICA® Caspase-1 solution at a ratio of 1:30 for 2 hours at 37° C. Cells were washed and cytospins were generated using a 5 minutes centrifugation at 450 rpm. Slides were fixed at 37° C. for 10 minutes using BD Cytofix Fixation Buffer (BD Biosciences), and subsequently washed using PBS. […] Co-localization of a-caspase-1 with NLRP3 inflammasome complexes was assessed using a Leica TCS SP5 AOBS Laser Scanning Confocal microscope (Leica Microsystems). […]

The subject of another data set is inflammasome. As to the kind of experiment: ASC staining flow cytometry for inflammasome formation in SF3B1-K700E BM cells. As to conditions: 24 hours treatment. It counts as cell-based, mouse. As for the experimental part:
ASC staining to detect inflammasome formation by flow cytometry. Staining was carried out as described ([…], et al. J Immunol. 2015 194(1):455-62). Briefly, cell pellets were resuspended in 1 mL of prewarmed BD Permeabilization Buffer III, and incubated on ice for 30 minutes. Cells were washed 2× with staining buffer. Following washing, cells were stained with rabbit-anti-ASC primary antibodies at a 1:1500 dilution and incubated for 90 minutes. Cells were washed, stained with secondary antibodies at a dilution of 1:1500, and incubated for 45 minutes. Cells were washed, and sample acquisitions were carried out using a BD LSR II flow cytometer and FACSDiva software.

The subject of data set [2] is ROS. Put plainly: ROS detection by flow cytometry in SF3B1-K700E BM cells. As to conditions: NAC or DPI treatment. It counts as cell-based, mouse. The text has this: (§1) ROS detection. ROS were detected using CM-H2DCFDA and CellROX® Deep Red Reagent according to manufacturer's protocol (Life Technologies).
For data set [3], the system named is β-catenin. As to the kind of experiment: β-catenin confocal microscopy in SF3B1-K700E BM cells. In kind it is cell-based, mouse. The note with it: 24 hours treatment. The procedure: (§2) Immunofluorescence confocal microscopy. MDS and normal donor BM-MNC and mouse BM cells were stained with 30× FAM-FLICA® Caspase-1 solution at a ratio of 1:30 for 2 hours at 37° C. Cells were washed and cytospins were generated using a 5 minutes centrifugation at 450 rpm. Slides were fixed at 37° C. for 10 minutes using BD Cytofix Fixation Buffer (BD Biosciences), and subsequently washed using PBS. Cells were permeabilized with 0.1% Triton X-100/2% BSA in PBS for 15 minutes at room temperature. After washing with PBS, cells were blocked using 2% BSA in PBS for 30 minutes at room temperature, and washed again. Cells were incubated with the appropriate primary antibody overnight (1:400 for NLRP3, 1:20 for β-catenin) at 4° C. The next day, cells were washed with PBS and incubated with the appropriate secondary antibodies (1:500) for 1 hour at room temperature. After washing, cells were covered with ProLong Gold Antifade Reagent with DAPI prior to the addition of a coverslip (Life Technologies). Co-localization of a-caspase-1 with NLRP3 inflammasome complexes was assessed using a Leica TCS SP5 AOBS Laser Scanning Confocal microscope (Leica Microsystems). Analysis of the inflammasome images was performed with Definiens Developer 2.0 (Definiens AG). The software was used to segment cells based on brightness and size thresholds, followed by a watershed segmentation algorithm. […]

Data set [4] deals with β-catenin. As to the kind of experiment: β-catenin confocal microscopy in normal BM-MNC. It counts as cell-based, human. As for the experimental part:
as §2

The target in data set [5] is T1, NLRP3 inflammasome (Homo sapiens, UniProt Q96P20).
T1 construct: endogenous in cells; host or cells: U937 cells
T1 sequence (Q96P20 whole entry): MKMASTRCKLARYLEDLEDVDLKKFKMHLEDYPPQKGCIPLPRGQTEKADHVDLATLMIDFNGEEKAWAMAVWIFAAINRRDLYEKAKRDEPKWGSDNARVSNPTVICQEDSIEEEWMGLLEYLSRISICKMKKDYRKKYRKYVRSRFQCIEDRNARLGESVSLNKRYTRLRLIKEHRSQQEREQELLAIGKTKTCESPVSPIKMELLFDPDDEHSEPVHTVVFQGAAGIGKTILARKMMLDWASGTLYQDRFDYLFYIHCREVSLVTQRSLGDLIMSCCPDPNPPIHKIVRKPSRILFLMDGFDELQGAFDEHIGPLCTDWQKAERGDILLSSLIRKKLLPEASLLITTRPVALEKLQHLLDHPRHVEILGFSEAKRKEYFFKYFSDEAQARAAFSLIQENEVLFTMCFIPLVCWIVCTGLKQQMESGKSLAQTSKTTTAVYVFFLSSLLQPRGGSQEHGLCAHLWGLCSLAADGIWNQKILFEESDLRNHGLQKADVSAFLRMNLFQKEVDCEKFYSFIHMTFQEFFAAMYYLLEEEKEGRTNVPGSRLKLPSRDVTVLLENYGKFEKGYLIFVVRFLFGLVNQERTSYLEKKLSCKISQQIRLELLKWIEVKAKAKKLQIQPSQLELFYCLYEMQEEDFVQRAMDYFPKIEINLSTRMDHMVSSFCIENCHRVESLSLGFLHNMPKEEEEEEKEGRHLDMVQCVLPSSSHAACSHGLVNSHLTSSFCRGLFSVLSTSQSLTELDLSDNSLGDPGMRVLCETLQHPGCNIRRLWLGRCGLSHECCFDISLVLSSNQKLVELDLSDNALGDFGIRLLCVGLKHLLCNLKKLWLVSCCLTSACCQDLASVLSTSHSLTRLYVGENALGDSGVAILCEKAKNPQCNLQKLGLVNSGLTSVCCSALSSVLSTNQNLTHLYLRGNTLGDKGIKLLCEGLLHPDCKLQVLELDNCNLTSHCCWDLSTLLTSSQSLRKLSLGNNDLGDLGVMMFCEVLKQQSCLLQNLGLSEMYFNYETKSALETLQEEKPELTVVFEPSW
As to the kind of experiment: Confocal microscopy of a-caspase-1/NLRP3 inflammasome formation in U937 cells. In kind it is cell-based. The note with it: 5 μg/mL, 24 hours.

Data set [6] concerns U937 cells. Put plainly: S100A9 flow cytometry experiments in U937 cells (a-caspase-1/annexin-V). In kind it is cell-based. The procedure: S100A9 flow cytometry experiments in U937 cells. Monocytic U937 cells were treated with the indicated concentrations of rhS100A9 for 24 hours, or with 5 μg/mL rhS100A9 for the indicated time points. Subsequently, cells were stained with 30× FAM-FLICA® Caspase-1 solution at a ratio of 1:30 for 2 hours at 37° C. Cells were washed, resuspended in 1× binding buffer, and stained with Annexin-V:PE at a dilution of 1:30 for 15 minutes at room temperature. 1× binding buffer was added to a final volume of 350 μL. Sample acquisitions were carried out using a BD FACSCalibur flow cytometer (BD Biosciences). Data were analyzed using FlowJo 9.7.5 software.

The subject of data set [7] is pyroptosis-associated genes. Put plainly: qPCR of pyroptosis-associated genes in normal BM-MNC treated with rhS100A9. It counts as cell-based, human. As to conditions: normal BM-MNC (n=2), 1 μg/mL, 24 hours. The procedure: Real-time quantitative PCR. RNA was isolated from BM-MNC using the RNeasy Mini Kit (Qiagen). cDNA was produced using the iScript cDNA Synthesis Kit (Bio-Rad). Sequences for primers can be found in Table 1. GAPDH mRNA was used for transcript normalization. cDNA was amplified using the iQ SYBR Green Supermix and the CFX96 Real-Time PCR Detection System (Bio-Rad). PCR conditions were as follows: 10 minutes at 95° C., followed by 40 cycles of amplification (15 seconds at 95° C. and 1 minute at 60° C.). Relative gene expression was calculated using the −2^ΔΔCt method.

In data set [8] the test system is NLRP3 inflammasome. As to the kind of experiment: Confocal microscopy of a-caspase-1/NLRP3 in normal BM-MNC treated with rhS100A9. In kind it is cell-based, human. As to conditions: 5 μg/mL, 24 hours. The procedure:
(§3) Immunofluorescence confocal microscopy. MDS and normal donor BM-MNC and mouse BM cells were stained with 30× FAM-FLICA® Caspase-1 solution at a ratio of 1:30 for 2 hours at 37° C. Cells were washed and cytospins were generated using a 5 minutes centrifugation at 450 rpm. Slides were fixed at 37° C. for 10 minutes using BD Cytofix Fixation Buffer (BD Biosciences), and subsequently washed using PBS. Cells were permeabilized with 0.1% Triton X-100/2% BSA in PBS for 15 minutes at room temperature. After washing with PBS, cells were blocked using 2% BSA in PBS for 30 minutes at room temperature, and washed again. Cells were incubated with the appropriate primary antibody overnight (1:400 for NLRP3, 1:20 for β-catenin) at 4° C. The next day, cells were washed with PBS and incubated with the appropriate secondary antibodies (1:500) for 1 hour at room temperature. After washing, cells were covered with ProLong Gold Antifade Reagent with DAPI prior to the addition of a coverslip (Life Technologies). Co-localization of a-caspase-1 with NLRP3 inflammasome complexes was assessed using a Leica TCS SP5 AOBS Laser Scanning Confocal microscope (Leica Microsystems). Analysis of the inflammasome images was performed with Definiens Developer 2.0 (Definiens AG). The software was used to segment cells based on brightness and size thresholds, followed by a watershed segmentation algorithm. Intensity values and Pearson's correlation coefficient were extracted from the segmented cells. For β-catenin image analysis, confocal images were imported into Definiens Tissue Studio v3.0, 64 Dual in .tif format. Cells were separated from background using the RGB thresholds. Nuclei were identified by setting thresholds in the DAPI channel. Typical cells averaged 60 microns. The red intensity (β-catenin) in the nucleus and cytoplasm was established by setting thresholds to low, medium and high in the red channel on a scale of 0-255 in the red channel.

Data set [9] relates to U937 cells. Put plainly: Pore formation, ethidium bromide uptake in U937 cells. It counts as cell-based. The note with it: U937, 5 μg/mL rhS100A9, 12.5 μg/mL ethidium bromide.
The subject of data set [10] is NLRP3 inflammasome. As to the kind of experiment: Confocal microscopy of a-caspase-1/NLRP3 in WT mouse BM cells treated with rhS100A9. It counts as cell-based. As to conditions: 5 μg/mL, 24 hours. As for the experimental part: as §3
For data set [11], the system named is ROS. As to the kind of experiment: ROS detection by flow cytometry in U937 cells. In kind it is cell-based. As to conditions: U937, 5 μg/mL, 24 hours, compared to untreated cells.
Text: as §1

The test system of data set [12] is U937 cells. As to the kind of experiment: Comet assay of DNA damage in U937 cells. In kind it is cell-based. The note with it: U937, 5 μg/mL, 24 hours, compared to untreated cells. The procedure: Comet assays. Monocytic U937 cells were treated with 5 μg/mL rhS100A9 for 24 hr. DNA damage was measured by single cell gel electrophoresis using alkaline CometAssay® according to manufacturer's protocol (Trevigen Inc.).

Data set [13] concerns β-catenin. Put plainly: β-catenin confocal microscopy in U937 cells. It counts as cell-based. As to conditions: 5 μg/mL, 24 hours, compared to untreated cells.
Setting [14] is: increasing concentrations, 24 hours.

`c1ccc2c(c1)[I+]c1ccccc1-2` [DPI]: in the data set with β-catenin [1], the “β-catenin activation in U2AF1-S34F mutant cells” value was “effectively reduced”. Besides, the “inflammasome formation (ASC) in SF3B1-K700E mutant-expressing BM cells” value with inflammasome is recorded as “significantly reduced”. In addition, in the data set on ROS [2], the “ROS MFI in SF3B1-K700E BM cells” value is reported as “extinguished below the level of WT controls” and the “mean percentage of ROS+ cells in SF3B1-K700E BM cells” value was “extinguished below the level of WT controls”. Moreover, the “percentage of cells with elevated levels of nuclear β-catenin in SF3B1-K700E BM cells” value in the data set on β-catenin [3] is given as “significantly reduced”.

As to `CC(=O)N[C@@H](CS)C(=O)O` [NAC, N-acetylcysteine], in the data set with β-catenin [1], the “β-catenin activation in U2AF1-S34F mutant cells” value is recorded as “effectively reduced”. Further, in the data set on inflammasome, the “inflammasome formation (ASC) in SF3B1-K700E mutant-expressing BM cells” value is on record as “significantly reduced”. Further, in the data set with ROS [2], the “ROS MFI in SF3B1-K700E BM cells” value is “extinguished below the level of WT controls” and the “mean percentage of ROS+ cells in SF3B1-K700E BM cells” value is recorded as “extinguished below the level of WT controls”. Also, in the data set on β-catenin [3], the “percentage of cells with elevated levels of nuclear β-catenin in SF3B1-K700E BM cells” value is given as “significantly reduced”. The “S100A9-triggered nuclear translocation of β-catenin in normal BM-MNC” value in the data set with β-catenin [4] (S100A9 treatment of normal BM-MNC) was “abolished”.

Regarding “rhS100A9: recombinant human S100A9, alarmin / DAMP protein, TLR4 and CD33 ligand”, the “levels of NLRP3 inflammasome complexes in U937” value in the data set with NLRP3 inflammasome [5] is “markedly increased”. Further, in the data set with U937 cells [6] (5 μg/mL), the “activation of caspase-1 in U937 over time” value is “time-dependent increase”. Besides, in the data set on U937 cells [6] (setting [14]), the “a-caspase-1 MFI in U937” value is on record as “corresponding increase”, the “fraction of pyroptotic cells in U937” value is on record as “concentration-dependent increase” and the “percentage of a-caspase-1+ cells in U937” value was “corresponding increase”. Also, the “expression of pyroptosis-associated genes” value in data set [7] is on record as “significantly up-regulated”. Moreover, in the data set with NLRP3 inflammasome [8], the “NLRP3 levels, fold induction” value was found to be 47.1 fold; the “a-caspase-1 levels, fold induction” value was 2.5 fold; the “formation of NLRP3 inflammasomes, fold induction” value stood at 2.9 fold. Besides, the “uptake of ethidium bromide” value in the data set on U937 cells [9] is “rapid and substantial uptake”. The inflammasome complexes result in the data set with NLRP3 inflammasome [10] is reported as “marked induction”. Moreover, in the data set on NLRP3 inflammasome [10] (versus controls), the “MFI of NLRP3” value is recorded as “significantly increased” and the “MFI of a-caspase-1” value is on record as “significantly increased”. For the same compound, the “fold increase in mean percentage of ROS-positive cells” value in the data set on ROS [11] was determined as 2.9 fold. Also, the “fold increase in DNA damage” value in the data set on U937 cells [12] is 4.1 fold. In the data set on β-catenin [13], the “levels of nuclear (activated) β-catenin in U937” value is “marked increases”. Moreover, in the data set with β-catenin [4] (5 μg/mL, 24 hours, compared to controls), the “levels of nuclear β-catenin in normal BM-MNC” value is given as “elevated levels”.

For the origin of these results see patent US10488411B2, “Inflammasome activation in myelodysplastic syndromes” (H. LEE MOFFITT CANCER CENTER AND RESEARCH INSTITUTE, INC., priority 2015, dated 2019).
